The source of these data is article PMC3900303 (Toxicology and applied pharmacology, 2013).

The test system of data set [1] is Human iPSC-derived cardiomyocytes. In words: High-throughput cardiomyocyte beating assay. Conditions: for effect on beating parameters at 30 minutes: 30 min exposure; for impact on the shape of the peaks: compounds known to prolong the QT interval; for chronotrope effect / effect on the beating rate / beat rate / effect on spacing between peaks and regularity: general clustering analysis of concentration-response; for effect on the beating rate / beat rate: 3 nM to 30 μM; for effect on beating: at 3 μM; for hormesis-like concentration effect on beating rate: low vs high concentrations.

For data set [2] the test system is unchanged.
Data set [3] shares this test system. Put plainly: Cell viability imaging. The format is cell-based. To be noted: evaluated 24 hrs after treatment.

Like-named read-outs stand apart in the source and are kept apart here.

`O=c1[nH]cc(F)c(=O)[nH]1` [5-fluoracil]: the “effect on beating parameters at 30 minutes” value (shortened to “effect on beating parameters”) in data set [1] is on record as “did not have an effect”.

With `CCCCc1oc2ccccc2c1C(=O)c1cc(I)c(OCCN(CC)CC)c(I)c1` [amiodarone], in data set [1], the “impact on the shape of the peaks” value is given as “profound impact” and the chronotrope effect entry is “negative chronotrope effect”.

For the compound `COc1ccc(CCN2CCC(Nc3nc4ccccc4n3Cc3ccc(F)cc3)CC2)cc1` [astemizol], the “effect on the beating rate / beat rate” value in data set [1] was “strongly inhibited”.

In the case of `CC(C)COCC(CN(Cc1ccccc1)c1ccccc1)N1CCCC1` (stereo not drawn) [bepridil], the “effect on the beating rate / beat rate” value in data set [1] is reported as “strongly inhibited”.

`CCCCN1CCCCC1C(=O)Nc1c(C)cccc1C` (stereo not drawn) [bupivacaine]: the beating profile result in data set [1] (multi-parametric peak pattern) was “appearance of wide peaks”.

For `N.N.[Cl][Pt][Cl]` [cisplatin, cis-diamineplatinum(II)dichloride], the “effect on beating parameters” value in data set [2] is reported as “did not have an effect”.

`COc1cccc2c1C(=O)c1c(O)c3c(c(O)c1C2=O)C[C@@](O)(C(C)=O)C[C@@H]3O[C@H]1C[C@H](N)[C@H](O)[C@H](C)O1` [daunorubicin]: the “effect on beating parameters” value in data set [1] was “did not have an effect”.

Regarding `CNCCCN1c2ccccc2CCc2ccccc21` [desipramine], in data set [1], the “impact on the shape of the peaks” value is reported as “profound impact”.

Regarding `O=C(O)Cc1ccccc1Nc1c(Cl)cccc1Cl` [diclofenac], the “effect on beating parameters” value in data set [1] is listed as “did not have an effect”.

On to `C[C@H]1O[C@@H](O[C@H]2[C@@H](O)C[C@H](O[C@H]3[C@@H](O)C[C@H](O[C@H]4CC[C@@]5(C)[C@H](CC[C@@H]6[C@@H]5CC[C@]5(C)[C@@H](C7=CC(=O)OC7)CC[C@]65O)C4)O[C@@H]3C)O[C@@H]2C)C[C@H](O)[C@@H]1O` [digitoxin], for which the effect on beating entry in data set [1] is reported as “blocked beating completely”.

Consider `C[C@H]1O[C@@H](O[C@H]2[C@@H](O)C[C@H](O[C@H]3[C@@H](O)C[C@H](O[C@H]4CC[C@@]5(C)[C@H](CC[C@@H]6[C@@H]5C[C@@H](O)[C@]5(C)[C@@H](C7=CC(=O)OC7)CC[C@]65O)C4)O[C@@H]3C)O[C@@H]2C)C[C@H](O)[C@@H]1O` [digoxin], for which, in data set [1], the effect on beating result is “blocked beating completely” and the “hormesis-like concentration effect on beating rate” value is given as “increased at low concentrations, but decreased or completely stopped at high doses”.

With `COc1ccc([C@@H]2Sc3ccccc3N(CCN(C)C)C(=O)[C@@H]2OC(C)=O)cc1` [diltiazem], in data set [1], the “effect on the beating rate / beat rate” value is “strongly inhibited”.

Consider `CC(C)N(CCC(C(N)=O)(c1ccccc1)c1ccccn1)C(C)C` (stereo not drawn) [disopyramide], for which, in data set [1] (30 min exposure time-point), the “effect on the beat rate” value is “no effect”. In data set [1] (30 min exposure time-point (Figure 2)), the “effect on the peak shape parameters” value is on record as “clear concentration-dependent effect”. In data set [1], the “impact on the shape of the peaks” value is “profound impact”; the “effect on spacing between peaks and regularity” value was “affected”; the “effect on the beating rate / beat rate” value is listed as “little effect”. In data set [3], the “effect on cell viability” value is reported as “No effect”.

In the case of `COc1cccc2c1C(=O)c1c(O)c3c(c(O)c1C2=O)C[C@@](O)(C(=O)CO)C[C@@H]3O[C@H]1C[C@H](N)[C@H](O)[C@H](C)O1` [doxorubicin], the “effect on beating parameters” value in data set [1] is “did not have an effect”.

As for `CC(=O)O.O=C(NCC1CCCCN1)c1cc(OCC(F)(F)F)ccc1OCC(F)(F)F` (stereo not drawn) [flecainid acetate], in data set [1], the “effect on spacing between peaks and regularity” value was “affected”; the “effect on the beating rate / beat rate” value is “little effect”.

`CC(C)Cc1ccc(C(C)C(=O)O)cc1` (stereo not drawn) [ibuprofen]: in data set [1], the “effect on beating parameters” value is reported as “did not have an effect”.

In the case of `CN(C)CCCN1c2ccccc2CCc2ccccc21` [imipramine], the “impact on the shape of the peaks” value in data set [1] is “profound impact”.

Regarding `CC(C)NCC(O)c1ccc(O)c(O)c1` (stereo not drawn) [isoproterenol], in data set [1], the chronotrope effect result is listed as “positive chronotrope effect”.

As for `CCN(CC)CC(=O)Nc1c(C)cccc1C` [lidocaine], in data set [1], the “effect on spacing between peaks and regularity” value is on record as “affected”; the “effect on the beating rate / beat rate” value is “little effect”.

Consider `Cc1cnc(NC(=O)C2=C(O)c3ccccc3S(=O)(=O)N2C)s1` [meloxicam], for which the “effect on beating parameters” value in data set [1] is listed as “did not have an effect”.

`COC(=O)C1=C(C)NC(C)=C(C(=O)OCCN(C)Cc2ccccc2)C1c1cccc([N+](=O)[O-])c1` (stereo not drawn) [nicardipine]: the “effect on the beating rate / beat rate” value in data set [1] was “strongly inhibited”.

`CC(C)NCC(O)COc1cccc2[nH]ccc12` (stereo not drawn) [pindolol]: the chronotrope effect entry in data set [1] is on record as “negative chronotrope effect”.

For the compound `CCc1ccc(CCOc2ccc(CC3SC(=O)NC3=O)cc2)nc1` (stereo not drawn) [pioglitazone], the “effect on beating parameters” value in data set [1] is “did not have an effect”.

As to `CCN(CC)CCNC(=O)c1ccc(N)cc1` [procainamide], in data set [1], the “impact on the shape of the peaks” value is given as “profound impact”.

As to `C=C[C@H]1C[N@@]2CC[C@H]1C[C@@H]2[C@@H](O)c1ccnc2ccc(OC)cc12` [quinidine], the “impact on the shape of the peaks” value in data set [1] is “profound impact”.

Consider `CS(=O)(=O)c1ccc(C2=C(c3ccccc3)C(=O)OC2)cc1` [rofecoxib], for which the “effect on beating parameters” value in data set [1] is “did not have an effect”.

`CN(CCOc1ccc(CC2SC(=O)NC2=O)cc1)c1ccccn1` (stereo not drawn) [rosiglitazone]: the “effect on beating parameters” value in data set [1] is “did not have an effect”.

Consider `OCc1cc(C(O)CNCCCCCCOCCCCc2ccccc2)ccc1O` (stereo not drawn) [salmeterol], for which the “hormesis-like concentration effect on beating rate” value in data set [1] is “increased at low concentrations, but decreased or completely stopped at high doses”.

Take `CC(C)NCC(O)c1ccc(NS(C)(=O)=O)cc1` (stereo not drawn) [sotalol]: the “impact on the shape of the peaks” value in data set [1] is listed as “profound impact”.

Regarding `CC(C)(C)c1ccc(C(O)CCCN2CCC(C(O)(c3ccccc3)c3ccccc3)CC2)cc1` (stereo not drawn) [terfenadine], the “effect on the beating rate / beat rate” value in data set [1] is “strongly inhibited”.
